Experiments:
[1] = test system: antibodies in sera from SARS patients (sera 1a, 1b, 2, 6, 37, 62, London, SARS-yellow, SARS-green); assay type: binding, human; design: Binding of serum 6 to linear peptides of protein X1 of SARS-CoV Urbani / Binding of serum 37 to linear peptides of protein X1 of SARS-CoV Urbani / Binding of serum 6 to looped/cyclic peptide (PEPSCAN-ELISA) / Binding of serum 37 to looped/cyclic peptide (PEPSCAN-ELISA) / Binding of serum 37 to looped/cyclic peptides of protein X1 of SARS-CoV Urbani / Binding of serum 6 to linear peptides of protein X2 / Binding of serum 37 to linear peptides of protein X2 / Binding of serum 37 to looped/cyclic peptides of protein X2 of SARS-CoV Urbani / Binding of serum 6 to linear peptides of protein M of SARS-CoV Urbani / Binding of serum 37 to linear peptides of protein M of SARS-CoV Urbani / Binding of serum 6 to looped/cyclic peptides of protein M of SARS-CoV Urbani / Binding of serum 37 to looped/cyclic peptides of protein M of SARS-CoV Urbani / Binding of serum 6 to linear peptides of protein X3 of SARS-CoV Urbani / Binding of serum 37 to linear peptides of protein X3 of SARS-CoV Urbani / Binding of serum 37 to looped/cyclic peptides of protein X3 of SARS-CoV Urbani / Binding of serum 6 to linear peptides of protein X4 of SARS-CoV Urbani / Binding of serum 37 to linear peptides of protein X4 of SARS-CoV Urbani / Binding of serum 37 to looped/cyclic peptides of protein X4 of SARS-CoV Urbani / Binding of serum 6 to linear peptides of protein X5 of SARS-CoV Urbani / Binding of serum 37 to linear peptides of protein X5 of SARS-CoV Urbani / Binding of serum 37 to looped/cyclic peptides of protein X5 of SARS-CoV Urbani / Binding of serum 6 to linear peptides of protein N of SARS-CoV Urbani / Binding of serum 37 to linear peptides of protein N of SARS-CoV Urbani / Binding of serum 6 to linear peptide (PEPSCAN-ELISA) / Binding of serum 1a to looped/cyclic peptides of protein N of SARS-CoV Urbani / Binding of serum 1b to looped/cyclic peptides of protein N of SARS-CoV Urbani / Binding of serum 2 to looped/cyclic peptides of protein N of SARS-CoV Urbani / Binding of serum 6 to looped/cyclic peptides of protein N of SARS-CoV Urbani / Binding of serum 37 to looped/cyclic peptides of protein N of SARS-CoV Urbani / Binding of serum 62 to looped/cyclic peptides of protein N of SARS-CoV Urbani / Binding of serum London to looped/cyclic peptides of protein N of SARS-CoV Urbani / Binding of serum SARS-green to looped/cyclic peptides of protein N of SARS-CoV Urbani: unit not given here
[2] = test system: control sera (pooled serum of ten healthy LUMC hospital workers; commercial negative donor pooled serum from the Dutch bloodbank); assay type: binding, human; design: Binding of Control serum LUMC to linear peptides / Binding of Control serum Blood-bank to linear peptides / Binding of Control serum LUMC to looped peptides / Binding of Control Serum Blood-Bank to Looped peptides / Binding of Control serum LUMC to linear peptides of the protein M of SARS-CoV Urbani / Binding of Control serum Blood-bank to linear peptides of the protein M of SARS-CoV Urbani / Binding of Control serum LUMC to looped peptides of the protein M of SARS-CoV Urbani / Binding of Control Serum Blood-Bank to Looped peptides of the protein M of SARS-CoV Urbani: unit not given here
[3] = test system: rabbit serum obtained by immunizing a rabbit with the SARS-CoV strain Frankfurt 1; assay type: binding; design: Binding of a rabbit serum to linear peptides / Binding of a rabbit serum to looped peptides / Rabbit serum linear peptides / Rabbit serum looped peptides / Binding of a rabbit serum to linear peptides of protein N of SARS-CoV Urbani (Rabbit serum linear peptides) / Binding of a rabbit serum to looped/cyclic peptides of protein N of SARS-CoV Urbani (Rabbit serum looped peptides): unit not given here

For WLCALGKVLPFHRWH, the “Binding of serum 1a to linear peptides of protein X5 of SARS-CoV Urbani” value [1] was 0.7, the “Binding of serum 1a to looped/cyclic peptides of protein X5 of SARS-CoV Urbani” value [1] was 0.5 and the “Binding of serum 1b to linear peptides of protein X5 of SARS-CoV Urbani” value [1] was 0.6. For the same sequence, the “Binding of serum 1b to looped/cyclic peptides of protein X5 of SARS-CoV Urbani” value [1] was 0.4, the “Binding of serum 2 to linear peptides of protein X5 of SARS-CoV Urbani” value [1] was 0.7 and the “Binding of serum 2 to looped/cyclic peptides of protein X5 of SARS-CoV Urbani” value [1] was 0.6. For the same sequence, the “Binding of serum 6 to linear peptides of protein X5 of SARS-CoV Urbani” value [1] was 0.8, the “Binding of serum 6 to looped/cyclic peptides of protein X5 of SARS-CoV Urbani” value [1] was 0.7 and the “Binding of serum 37 to linear peptides of protein X5 of SARS-CoV Urbani” value [1] was 0.7. For the same sequence, the “Binding of serum 37 to looped/cyclic peptides of protein X5 of SARS-CoV Urbani” value [1] was 0.5, the “Binding of serum 62 to linear peptides of protein X5 of SARS-CoV Urbani” value [1] was 0.8 and the “Binding of serum 62 to looped/cyclic peptides of protein X5 of SARS-CoV Urbani” value [1] was 0.7. The “Binding of serum London to linear peptides of protein X5 of SARS-CoV Urbani” value [1] was 0.8, the “Binding of serum London to looped/cyclic peptides of protein X5 of SARS-CoV Urbani” value [1] was 0.5 and the “Binding of serum SARS-green to linear peptides of protein X5 of SARS-CoV Urbani” value [1] was 0.6. The “Binding of serum SARS-green to looped/cyclic peptides of protein X5 of SARS-CoV Urbani” value [1] was 0.5, the “Binding of serum SARS-yellow to linear peptides of protein X5 of SARS-CoV Urbani” value [1] was 0.2 and the “Binding of serum SARS-yellow to looped/cyclic peptides of protein X5 of SARS-CoV Urbani” value [1] was 0.6. The “Binding of Control Serum Blood-Bank to Looped peptides” value [2] was 0.4, the “Binding of Control serum Blood-bank to linear peptides” value [2] was 0.9 and the “Binding of Control serum LUMC to linear peptides” value [2] was 0.6. The “Binding of Control serum LUMC to looped peptides” value [2] was 0.6, the “Rabbit serum linear peptides” value [3] was 0.6 and the “Rabbit serum looped peptides” value [3] was 0.8.
In the case of EITVATSRTLSYYKL, the “Binding of serum 1a to linear peptides of protein M of SARS-CoV Urbani” value [1] is reported as 0.7, the “Binding of serum 1a to looped/cyclic peptides of protein M of SARS-CoV Urbani” value [1] is reported as 0.6 and the “Binding of serum 1b to linear peptides of protein M of SARS-CoV Urbani” value [1] is reported as 0.5. For the same sequence, the “Binding of serum 1b to looped/cyclic peptides of protein M of SARS-CoV Urbani” value [1] was 0.4, the “Binding of serum 2 to linear peptides of protein M of SARS-CoV Urbani” value [1] was 0.6 and the “Binding of serum 2 to looped/cyclic peptides of protein M of SARS-CoV Urbani” value [1] was 0.5. The “Binding of serum 6 to linear peptides of protein M of SARS-CoV Urbani” value [1] was 0.4, the “Binding of serum 6 to looped/cyclic peptides of protein M of SARS-CoV Urbani” value [1] was 0.5 and the “Binding of serum 37 to linear peptides of protein M of SARS-CoV Urbani” value [1] was 0.8. For the same sequence, the “Binding of serum 37 to looped/cyclic peptides of protein M of SARS-CoV Urbani” value [1] was 0.5, the “Binding of serum 62 to linear peptides of protein M of SARS-CoV Urbani” value [1] was 0.9 and the “Binding of serum 62 to looped/cyclic peptides of protein M of SARS-CoV Urbani” value [1] was 0.5. For the same sequence, the “Binding of serum London to linear peptides of protein M of SARS-CoV Urbani” value [1] was 0.3, the “Binding of serum London to looped/cyclic peptides of protein M of SARS-CoV Urbani” value [1] was 0.2 and the “Binding of serum SARS-green to linear peptides of protein M of SARS-CoV Urbani” value [1] was 0.4. The “Binding of serum SARS-green to looped/cyclic peptides of protein M of SARS-CoV Urbani” value [1] was 0.3, the “Binding of serum SARS-yellow to linear peptides of protein M of SARS-CoV Urbani” value [1] was 0.1 and the “Binding of serum SARS-yellow to looped/cyclic peptides of protein M of SARS-CoV Urbani” value [1] was 0.5. The “Binding of Control Serum Blood-Bank to Looped peptides of the protein M of SARS-CoV Urbani” value [2] was 0.7, the “Binding of Control serum Blood-bank to linear peptides of the protein M of SARS-CoV Urbani” value [2] was 0.7 and the “Binding of Control serum LUMC to linear peptides of the protein M of SARS-CoV Urbani” value [2] was 0.4. For the same sequence, the “Binding of Control serum LUMC to looped peptides of the protein M of SARS-CoV Urbani” value [2] was 0.6, the “Rabbit serum linear peptides” value [3] was 0.7 and the “Rabbit serum looped peptides” value [3] was 0.1.
RGNTYSTAWLCALGK was tested, and the “Binding of serum 1a to linear peptides of protein X5 of SARS-CoV Urbani” value [1] was 0.9, the “Binding of serum 1a to looped/cyclic peptides of protein X5 of SARS-CoV Urbani” value [1] was 0.4 and the “Binding of serum 1b to linear peptides of protein X5 of SARS-CoV Urbani” value [1] was 0.6. For the same sequence, the “Binding of serum 1b to looped/cyclic peptides of protein X5 of SARS-CoV Urbani” value [1] was 0.3, the “Binding of serum 2 to linear peptides of protein X5 of SARS-CoV Urbani” value [1] was 0.9 and the “Binding of serum 2 to looped/cyclic peptides of protein X5 of SARS-CoV Urbani” value [1] was 0.6. The “Binding of serum 6 to linear peptides of protein X5 of SARS-CoV Urbani” value [1] was 0.7, the “Binding of serum 6 to looped/cyclic peptides of protein X5 of SARS-CoV Urbani” value [1] was 0.9 and the “Binding of serum 37 to linear peptides of protein X5 of SARS-CoV Urbani” value [1] was 0.8. The “Binding of serum 37 to looped/cyclic peptides of protein X5 of SARS-CoV Urbani” value [1] was 0.5, the “Binding of serum 62 to linear peptides of protein X5 of SARS-CoV Urbani” value [1] was 0.8 and the “Binding of serum 62 to looped/cyclic peptides of protein X5 of SARS-CoV Urbani” value [1] was 0.7. For the same sequence, the “Binding of serum London to linear peptides of protein X5 of SARS-CoV Urbani” value [1] was 0.8, the “Binding of serum London to looped/cyclic peptides of protein X5 of SARS-CoV Urbani” value [1] was 1.4 and the “Binding of serum SARS-green to linear peptides of protein X5 of SARS-CoV Urbani” value [1] was 0.6. The “Binding of serum SARS-green to looped/cyclic peptides of protein X5 of SARS-CoV Urbani” value [1] was 0.3, the “Binding of serum SARS-yellow to linear peptides of protein X5 of SARS-CoV Urbani” value [1] was 0.3 and the “Binding of serum SARS-yellow to looped/cyclic peptides of protein X5 of SARS-CoV Urbani” value [1] was 0.5. The “Binding of Control Serum Blood-Bank to Looped peptides” value [2] was 0.4, the “Binding of Control serum Blood-bank to linear peptides” value [2] was 1.0 and the “Binding of Control serum LUMC to linear peptides” value [2] was 0.6. The “Binding of Control serum LUMC to looped peptides” value [2] was 0.6, the “Rabbit serum linear peptides” value [3] was 1.3 and the “Rabbit serum looped peptides” value [3] was 0.8.
